Source: patent US20250026781A1, “Prodrugs of Neurosteroid Analogs and Uses Thereof” (Emory University, priority 2021, published 2025)
Counter-ions that a name gives are not always drawn.

Experiment: Plasma stability assay in human plasma (LC-MS/MS)
Type: in vitro ADME
Conditions: 37° C., 3 μM test compound, time points 0-240 min, read-out: Plasma t1/2 (converted)
Procedure: Procaine and procainamide were purchased from Sigma Aldrich. HPLC-grade acetonitrile, water, methanol, and formic acid were purchased from Fisher Scientific. Human plasma (Cat. No. […]2N) was obtained from BIOIVT, and PBS (1× Dulbecco's, pH 7.4) from Thermo Fisher Scientific.
Test compounds were dissolved in DMSO to make a stock solution of 10 mM and then diluted to 500 μM in buffer or 70% methanol. Human plasma was thawed at ambient temperature and aliquoted (994.0 μL) to a 1.5 mL Eppendorf tube in duplicates (vials A and B) for each compound. The plasma was incubated at 37° C. for 10 min in an incubator shaker at 150 RPM; the reaction was initiated by addition of the test compound (6.0 μL), followed by vortex mixing. The total reaction volume was 1000 μL, the final organic solvent concentrations were […] (when 70% methanol was used for dilution) and 0.03% DMSO, and the final concentration of the test compound was 3 μM. The spiked plasma samples were incubated at 37° C. for 4 h. The reactions were terminated at time point 0, 15, 30, 60, 120, 180, and 240 min by taking a 100 μL aliquot from the test incubation mixture and immediately quenching it by adding it into ice-cold acetonitrile or methanol (150 μL) containing 2 μM internal standard (ISTD), followed by vortex mixing. The ISTD was d5-7-ethoxy coumarin. The samples were then centrifuged at 15000 RPM for 25 min at 4° C., and the supernatant was transferred to an LC-MS vial for analysis by LC-MS/MS. Each time point was tested in duplicates followed by in-between blank washes to avoid carryover and to equilibrate the column.
Procaine (poor plasma stability) and procainamide (good plasma stability) were used as controls at the same concentration as that of the test compound. These controls were run in parallel to test the assay's competency. Matrix blank was prepared by adding acetonitrile or methanol containing ISTD to plasma samples without any of the test or control compounds. Also, an additional control sample was made to simply monitor compound degradation in PBS buffer.
Below is a summary of samples prepared for a given test compound in a typical plasma stability assay: • Test compound (TC): 994 μL human plasma+6.0 μL TC (Vial A) • 994 μL human plasma+6.0 μL TC (Vial B) • Control: 596 μL human plasma+3.6 μL (procaine+procainamide) • Blank matrix: 500 μL PBS buffer+100 μL human plasma • Additional control: 142 μL PBS buffer+0.9 μL TC • Quenching mixture: 150 μL acetonitrile or methanol with ISTD (2 μM) • Final volume: 250 μL (100 μL from the incubation mixture+150 μL quenching mixture; final ISTD conc.: 1.2 μM)
LC-MS/MS analysis was performed using Agilent 1260 Infinity II HPLC, coupled with an Agilent G6460 triple quadrupole mass spectrometer (Agilent Technologies, USA). The data were acquired and processed using the Agilent 6460 Quantitative Analysis data processing software.
Reverse-phase HPLC separation for each compound was achieved on an Agilent InfinityLab Poroshell 120 C18 column (2.1×50 mm, 2.7 μm) with a mobile phase composed of methanol/water with 0.1% formic acid or acetonitrile/water with 0.1% formic acid at a flow rate of 0.5 mL/min. Each method was developed in the presence of the ISTD. The column temperature was maintained at 40° C. The detection was operated using the Agilent Jet-Stream electrospray positive ionization under the multiple reaction monitoring (MRM) mode. The mass spec conditions were as follows: dwell time 100 ms; gas flow 10 L/min; nebulizer pressure 45 psi; delta EMV 200 V.
Plots of time (x-axis) vs. the natural logarithm of percent parent remaining (y-axis) were subsequently constructed to determine the slope. Finally, the plasma stability was evaluated using the following equation: […]

**Q.** For `CNCCN(C)C(=O)O/N=C(\C)[C@H]1CC[C@H]2[C@@H]3CCC4C[C@@H](O)CC[C@]4(C)[C@H]3CC[C@]12C` (stereo partly drawn) [12a, (E)-1-((3S,8R,9S,10S,13S,14S,17S)-3-hydroxy-10,13-dimethylhexadecahydro-1H-cyclopenta[a]phenanthren-17-yl)ethan-1-one O-(methyl (2-(methylamino)ethyl)carbamoyl) oxime trifluoroacetate], which half-life at 3 μM is on record?
**A.** The half-life at 3 μM was 87 min.

**Q.** With `CNCCN(C)C(=O)O/N=C(\C)[C@H]1CC[C@H]2[C@@H]3CC=C4C[C@@H](O)CC[C@]4(C)[C@H]3CC[C@]12C` [12b, (E)-1-((3S,8S,9S,10R,13S,14S,17S)-3-hydroxy-10,13-dimethyl-2,3,4,7,8,9,10,11,12,13,14,15,16,17-tetradecahydro-1H-cyclopenta[a]phenanthren-17-yl)ethan-1-one O-(methyl (2-(methylamino)ethyl)carbamoyl)oxime trifluoroacetate] as the molecule, how does the half-life at 3 μM read?
**A.** The half-life at 3 μM was 73.8 min.

**Q.** With `CNCCN(C)C(=O)O/N=C(\C)[C@H]1CC[C@H]2[C@@H]3CCC4C[C@H](O)CC[C@]4(C)[C@H]3CC[C@]12C` (stereo partly drawn) [12c, (E)-1-((3R,8R,9S,10S,13S,14S,17S)-3-hydroxy-10,13-dimethylhexadecahydro-1H-cyclopenta[a]phenanthren-17-yl)ethan-1-one O-(methyl (2-(methylamino)ethyl)carbamoyl)oxime trifluoroacetate] as the molecule, how does the half-life at 3 μM read?
**A.** The half-life at 3 μM was 83.4 min.

**Q.** For `C/C(=N\OC(=O)N(C)C[C@@H]1CCCN1)[C@H]1CC[C@H]2[C@@H]3CCC4C[C@@H](O)CC[C@]4(C)[C@H]3CC[C@]12C` (stereo partly drawn) [13a, (E)-1-((3S,8R,9S,10S,13S,14S,17S)-3-hydroxy-10,13-dimethylhexadecahydro-1H-cyclopenta[a]phenanthren-17-yl)ethan-1-one O-(methyl(((S)-pyrrolidin-2-yl)methyl)carbamoyl)oxime trifluoroacetate], which half-life at 3 μM is on record?
**A.** The half-life at 3 μM was less than 6 min.

**Q.** For `C/C(=N\OC(=O)N(C)C[C@@H]1CCCN1)[C@H]1CC[C@H]2[C@@H]3CC=C4C[C@@H](O)CC[C@]4(C)[C@H]3CC[C@]12C` [13b, (E)-1-((3S,8S,9S,10R,13S,14S,17S)-3-hydroxy-10,13-dimethyl-2,3,4,7,8,9,10,11,12,13,14,15,16,17-tetradecahydro-1H-cyclopenta[a]phenanthren-17-yl)ethan-1-one O-(methyl(((S)-pyrrolidin-2-yl)methyl)carbamoyl)oxime trifluoroacetate], which half-life at 3 μM is on record?
**A.** The half-life at 3 μM was less than 6 min.

**Q.** With `C/C(=N\OC(=O)N(C)C[C@@H]1CCCN1)[C@H]1CC[C@H]2[C@@H]3CCC4C[C@H](O)CC[C@]4(C)[C@H]3CC[C@]12C` (stereo partly drawn) [13c, (E)-1-((3R,8R,9S,10S,13S,14S,17S)-3-hydroxy-10,13-dimethylhexadecahydro-1H-cyclopenta[a]phenanthren-17-yl)ethan-1-one O-(methyl(((S)-pyrrolidin-2-yl)methyl)carbamoyl)oxime trifluoroacetate] as the molecule, how does the half-life at 3 μM read?
**A.** The half-life at 3 μM was less than 6 min.
